Source: ChEMBL document CHEMBL3396978, “Design, synthesis of new β-carboline derivatives and their selective anti-HIV-2 activity” (Bioorg Med Chem Lett, 2015)
Activity calls are given as the source filed them. The calls are words filed in the database; no cut-off is given here.

Tests used:
[1] = tested on: Human immunodeficiency virus 1; assay: Antiviral activity against HIV1 3B infected infected in human MT4 cells assessed as protection against virus-induced cytotoxicity after 5 days by MTT assay; type: functional, organism-based; details: Human immunodeficiency virus 1, 3B, MT4, 120 h
[2] = tested on: Human immunodeficiency virus 2; assay: Antiviral activity against HIV2 ROD infected in human MT4 cells assessed as protection against virus-induced cytotoxicity after 5 days by MTT assay; type: functional, organism-based; details: Human immunodeficiency virus 2, ISOLATE ROD, MT4, 120 h
HeLa = assay: Cytotoxicity against mock-infected human […] cells by MTT assay; type: functional
[3] = Selectivity index, ratio of CC50 for mock-infected human […] cells to EC50 for HIV2 ROD infected in human MT4 cells; type: toxicity, cell-based; details: read-out: Ratio CC50/EC50
[4] = tested on: Human immunodeficiency virus; assay: Antiviral activity against HIV; type: functional, organism-based; details: Human immunodeficiency virus 1
[5] = biological target: Reverse transcriptase (Human immunodeficiency virus 2) (UniProt Q06347); assay: Inhibition of HIV2 reverse transcriptase using poly(C).oligo(dG) template/primer after 30 mins at 200 ug/mL
[6] = biological target: Reverse transcriptase (Human immunodeficiency virus 2) (UniProt Q06347); assay: Inhibition of HIV2 reverse transcriptase using poly(A).oligo(dT) template/primer after 30 mins at 200 ug/mL
[7] = tested on: Human immunodeficiency virus 2; assay: Antiviral activity against HIV2; type: functional, organism-based
[8] = tested on: Human immunodeficiency virus 1; assay: Antiviral activity against HIV1; type: functional, organism-based

Reverse transcriptase (Human immunodeficiency virus 2), sequence (Q06347 as listed by the source): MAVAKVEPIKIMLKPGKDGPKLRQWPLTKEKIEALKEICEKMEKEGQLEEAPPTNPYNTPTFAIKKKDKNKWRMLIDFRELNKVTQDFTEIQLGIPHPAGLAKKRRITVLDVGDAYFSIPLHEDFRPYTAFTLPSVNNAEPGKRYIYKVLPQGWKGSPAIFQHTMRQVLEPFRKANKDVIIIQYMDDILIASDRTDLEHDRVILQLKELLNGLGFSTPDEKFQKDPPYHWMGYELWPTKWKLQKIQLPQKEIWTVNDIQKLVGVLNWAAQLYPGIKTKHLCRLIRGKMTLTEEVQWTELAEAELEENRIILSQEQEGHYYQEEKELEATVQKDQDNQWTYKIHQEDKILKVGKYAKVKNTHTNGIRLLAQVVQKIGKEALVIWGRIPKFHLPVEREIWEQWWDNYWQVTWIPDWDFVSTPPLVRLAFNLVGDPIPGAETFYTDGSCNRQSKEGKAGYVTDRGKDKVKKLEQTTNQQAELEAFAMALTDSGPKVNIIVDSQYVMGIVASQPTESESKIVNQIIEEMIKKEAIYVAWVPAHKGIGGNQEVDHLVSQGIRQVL

| Structure (SMILES) | EC50 [1] [µM] | EC50 [2] [µM] | CC50 (HeLa) [µM] | selectivity ratio [3] | EC50 [4] [µM] | inhibition [5] | inhibition [6] | EC50 [7] [µM] | EC50 [8] [µM] |
| --- | --- | --- | --- | --- | --- | --- | --- | --- | --- |
| Cn1c2ccccc2c2cc(C(=O)N3CCN(c4ccc([N+](=O)[O-])cc4)CC3)nc(-c3ccccc3)c21 | > 204 | > 204 | > 204 | – | – | – | – | – | – |
| Cc1cn([C@H]2C[C@H](N=[N+]=[N-])[C@@H](CO)O2)c(=O)[nH]c1=O [ZIDOVUDINE] | 0.0019 | 0.0016 | > 25 | > 12500 | – | – | – | – | – |
| O=C(O)c1cc2c([nH]c3ccccc32)c(-c2ccc(CO)o2)n1 [FLAZINE] | – | – | – | – | 2.36 | – | – | – | – |
| COc1ccccc1N1CCN(C(=O)c2cc3c4ccccc4n(C)c3c(-c3ccccc3)n2)CC1 | > 25.3 | 3.2 | 25.3 | 8 | – | inactive | inactive | – | – |
| Nc1ccn([C@@H]2CS[C@H](CO)O2)c(=O)n1 [LAMIVUDINE] | 0.89 | 3.56 | > 20 | > 5.6 | – | – | – | – | – |
| Cn1c2ccccc2c2cc(C(=O)N3CCN(Cc4ccccc4)CC3)nc(-c3ccccc3)c21 | > 21.7 | > 21.7 | 21.7 | < 1 | – | – | – | – | – |
| Cn1c2ccccc2c2cc(C(=O)N3CCN(c4ccccc4)CC3)nc(-c3ccccc3)c21 | > 224 | 29.4 | > 224 | > 8 | – | inactive | inactive | – | – |
| Cc1ccc(N2CCN(C(=O)c3cc4c5ccccc5n(C)c4c(-c4ccccc4)n3)CC2)cc1 | > 29.6 | 3.3 | 29.6 | 9 | – | inactive | inactive | – | – |
| Cn1c2ccccc2c2cc(C(=O)N3CCN(c4ccncc4)CC3)nc(-c3ccccc3)c21 | > 4.02 | > 4.02 | 4.02 | < 1 | – | – | – | – | – |
| Cn1c2ccccc2c2cc(C(=O)N3CCN(c4ccccn4)CC3)nc(-c3ccccc3)c21 | > 19.2 | > 19.2 | 19.2 | < 1 | – | – | – | – | – |
| Cn1c2ccccc2c2cc(C(=O)N3CCN(c4ccc(Cl)cc4)CC3)nc(-c3ccccc3)c21 | > 208 | > 208 | > 208 | – | – | – | – | – | – |
| Cc1ccccc1N1CCN(C(=O)c2cc3c4ccccc4n(C)c3c(-c3ccccc3)n2)CC1 | > 16.9 | > 16.9 | 16.9 | < 1 | – | – | – | – | – |
| Cn1c2ccccc2c2cc(C(=O)N3CCN(c4cccc(Cl)c4)CC3)nc(-c3ccccc3)c21 | > 111 | > 111 | 111 | < 1 | – | – | – | – | – |
| Cn1c2ccccc2c2cc(C(=O)N3CCN(c4ccccc4Cl)CC3)nc(-c3ccccc3)c21 | > 23.6 | > 23.6 | 23.6 | < 1 | – | – | – | – | – |
| Cn1c2ccccc2c2cc(C(=O)N3CCN(c4cccc(Cl)c4Cl)CC3)nc(-c3ccccc3)c21 | > 63.9 | > 63.9 | 63.9 | < 1 | – | – | – | – | – |
| O=c1[nH]cnc2c1ncn2[C@H]1CC[C@@H](CO)O1 [DIDANOSINE] | 2.56 | 2.27 | > 50 | > 21.7 | – | – | – | – | – |
| Cc1ccnc2c1NC(=O)c1cccnc1N2C1CC1 [NEVIRAPINE] | 0.027 | > 4 | > 4 | – | – | – | – | – | – |
| COc1cccc(N2CCN(C(=O)c3cc4c5ccccc5n(C)c4c(-c4ccccc4)n3)CC2)c1 | > 134 | > 134 | 134 | < 1 | – | – | – | – | – |
| Cn1c2ccccc2c2cc(C(=O)N3CCN(c4ccccc4F)CC3)nc(-c3ccccc3)c21 | > 50.6 | 5.4 | 50.6 | 9 | – | inactive | inactive | – | – |
| Cn1c2ccccc2c2cc(C(=O)N3CCN(c4ccc(F)cc4)CC3)nc(-c3ccccc3)c21 | > 189 | 2.6 | > 189 | > 72 | – | inactive | inactive | – | – |
| COc1ccc(N2CCN(C(=O)c3cc4c5ccccc5n(C)c4c(-c4ccccc4)n3)CC2)cc1 | > 210 | > 210 | > 210 | – | – | – | – | – | – |
| NC(=O)c1cc2c([nH]c3ccccc32)c(-c2ccc(CO)o2)n1 | – | – | – | – | – | – | – | 0.57 | 0.38 |
